Usually AUC(0-inf) stands for total exposure, with the tail of the curve extrapolated. Low readings indicate low exposure, high ones high exposure. As a reminder, the Cmax is the peak of the concentration-time curve. A word on the half-life: it is the time in which the quantity being followed falls by half. High values mean slow decline, low ones rapid decline.

Read-outs that look alike come from different tables or passages of the source.

For series [1], the system named is mouse model of SCA. Particulars: given with a RyR inhibitor; cited from earlier work.
Series [2] relates to WFS1 depleted INS-1 832/13 cells. In words: Cell death in WFS1 depleted INS-1 832/13 cells (Caspase 3/7 activation). Format: cell-based. To be noted: pretreated 24 h with various concentrations, then DOX 48 h to deplete WFS1; FIGS. 3 and 4. The source says:
(§1) A Caspase 3/7 assay (Promega, Madison, Wis.) was utilized to measure caspase-3 and -7 activities in various cell lines. The assay provides a proluminescent caspase-3/7 substrate, which contains the tetrapeptide sequence DEVD. This caspase-3/7 substrate can be added directly to cell lysates. The substrate is cleaved to release an aminoluciferin, which is a substrate for luciferase used in the production of light. The signal is proportional to caspase-3/7 activity. The stabilized luciferase and proprietary buffer system improve assay performance across a wide range of assay conditions, and the assay is less likely to be affected by compound interference unlike fluorescent- or colorimetric-based assays
INS-1 832/13 cells in which WFS1 expression could be depleted by doxycycline (DOX)-inducible expression of shWFS1 were pretreated with or without various concentrations of JTV519 or oxidized JTV519 for 24 h and then treated with DOX for 48 h to deplete WFS1 and induce cell death. Apoptosis was measured by monitoring Caspase 3/7 activation.

Series [3] has as its system INS-1 832/13 cells. In words: Cytosolic calcium levels by Fura-2AM in INS-1 832/13 cells challenged with thapsigargin. The class given is cell-based. To be noted: range of concentrations, thapsigargin 1 μM added, FIGS. 5 and 6. The protocol:
INS-1 832/13 cells were treated with JTV519 or JTV519-oxidized over a range of concentrations. Cytoplasmic calcium levels were measured by Fura-2AM calcium indicator over a period of minutes. Thapsigargin (1 μM) was added at the time point indicated by an arrow (n=6, the experiment was repeated 6 independent times) on FIGS. 5 and 6.

Series [4] relates to INS-1 823/13 cells. In words: Thapsigargin-mediated cell death (caspase 3/7-Glo luminescence). Format: cell-based. Particulars: pretreated 24 hours, then 0.5 nM thapsigargin overnight; FIGS. 7-9.
Text: as §1
The pathway leading to calpain-2 activation provides potential therapeutic targets for Wolfram syndrome, such as leakage of ER calcium to the cytosol. To test this concept, a small-scale screen was performed to identify chemical compounds that could prevent cell death mediated by thapsigargin, a known inhibitor for ER calcium ATPase. INS-1 823/13 cells were pretreated with […] in media containing 0.5 nM of thapsigargin (TG) overnight. Apoptosis was detected by caspase 3/7-Glo luminescence.

For series [5], the system named is INS-1E cells. The series is described as follows: Cytokine-induced cell death in INS-1E cells (caspase 3/7 activity assay). Format: cell-based. Particulars: 1 μM-50 μM for 24 hours, then IL-1β and IFN-γ 50 ng/ml for 24 hours; FIG. 10.
Text: as §1
To determine whether JTV519 can prevent ER calcium depletion and confer protection against ER stress-mediated cell death in a cell model of type 1 diabetes. INS-1E cells were pre-treated with 1 μM-50 μM of JTV519 for 24 hours then stressed for 24 hours with cytokines (IL-1β and IFN-γ 50 ng/ml). Apoptotic cell death was measured via caspase 3/7 activity assay. […] Data are expressed as mean±SEM from three independent experiments. *p<0.05 compared to cytokine treated cells unpaired t-test.

Series [6] is described as follows: Pharmacokinetic study of JTV519 in CD1 mice (UPLC-MS/MS). To be noted: for AUC(0-inf) / Cmax / half-life / Kp: CD-1 mouse; for Kp: read-out: AUC ratio (with plasma). The class given is in vivo. The protocol: To study the pharmacokinetics of JTV519, the compound was synthesized as the HCl salt and formulated as a clear solution in 20% HP-β-CD in saline and intraperitoneally injected into CD1 mice. Samples of blood and pancreas tissue and whole brain and heart organs were collected from the mice and analyzed.
An ultra-performance liquid chromatography-tandem mass spectrometry (UPLC-MS/MS) method was developed to determine sample concentrations in the samples. Mass spectrometric analysis was performed on a Waters Xevo TQ-S triple quadrupole instrument using electrospray ionization in positive mode with the selected reaction monitoring (SRM). The MS/MS parameters were optimized by infusion compounds. The separation was performed on an Acquity BEH C18 column (50×2.1 mm, 1.7μ) using a Waters Acquity UPLC system with 0.6 mL/min flow rate and gradient elution. The column temperature was maintained at 60° C. The calibration standards (1.0-5000 ng/mL) and quality control samples were prepared in the blank mouse plasma. 10 μL plasma samples were mixed with 200 μL internal standard in acetonitrile to precipitate proteins in a 96-well plate. 1.0 μL supernatant was injected for the UPLC-MS/MS analysis

The test system of series [7] is WFS1 gene knockout mice. In words: Motor function study, 90° inclined screen test. The class given is in vivo. To be noted: i.p. 15 mg/kg/day, 5 days per week, 6 weeks, vs control mice, FIG. 11. The protocol:
WFS1 gene knockout mice, a mouse model of Wolfram syndrome, were treated with JTV519 (i.p. injections, 15 mg/kg/day, 5 days per week) or saline after they become 6 weeks old for 6 weeks (5 female mice for each group). Littermate wild-type control mice were treated by saline (VEH) for 6 weeks (3 female mice). Motor functions of the WFS1 knockout were evaluated using a 90° inclined screen test.
For the 90° inclined screen test, each mouse was placed on top of an elevated (47 cm above the floor) wire mesh grid (16 squares per 10 cm) that was inclined to 90°. Each mouse was placed in the middle of the screen with its head oriented down and was timed for how long it remained on the screen and how long it took to climb to the top of the screen.

Setting [8] is: conclusion from the pharmacokinetic study.

Turning to `O=C1CN(/N=C/c2ccc(-c3ccc([N+](=O)[O-])cc3)o2)C(=O)[N-]1.[Na+]` [Dantrolene, 1-[[5-(4-nitrophenyl)-2-furyl]methylideneamino]imidazolidine-2,4-dione], in series [1], the “age dependent deficit of motor coordination” value is given as “ameliorated the age dependent deficit of motor coordination”.

Regarding `COc1ccc2c(c1)CN(C(=O)CCN1CCC(Cc3ccccc3)CC1)CCS2` [JTV519, 3-(4-benzyl-1-piperidinyl)-1-(7-methoxy-2,3-dihydro-1,4-benzothiazepin-4(5H)-yl)-1-propanone], the “cell death (apoptosis, Caspase 3/7 activation)” value in series [2] is recorded as “suppress cell death”. Further, the cytosolic calcium levels result in series [3] is “decreased cytosolic calcium levels”. Further, the “thapsigargin mediated cell death (apoptosis, caspase 3/7-Glo)” value in series [4] is given as “did not significantly suppress thapsigargin mediated cell death”. The “cytokine-induced cell death (caspase 3/7 activity)” value in series [5] is “protects INS-1E cells from cytokine-induced cell death”. Besides, in series [6] (brain, ip 30 mg/kg, n = 3), the AUC(0-inf) stood at 10100 ng·h/mL, the Cmax is 5130 ng/mL, the half-life was 5.1 h and the Kp is 2.9. In addition, in series [6] (setting [8]), the permeability result is reported as “good” and the solubility entry is “good”. Moreover, in series [6] (conclusion from the pharmacokinetic study, ip 30 mg/kg, mice), the “blood brain barrier passage” value is given as “passed the blood brain barrier”. Besides, in series [6] (heart, ip 30 mg/kg, n = 3), the AUC(0-inf) was 29200 ng·h/mL, the Cmax came to 14300 ng/mL, the half-life is 4 h and the Kp was 8.4. Also, in series [6] (pancreas, ip 30 mg/kg, n = 3), the AUC(0-inf) is 146000 ng·h/mL, the Cmax was found to be 105000 ng/mL, the half-life is 4.5 h and the Kp was 42. In series [6] (plasma, ip 30 mg/kg), the AUC(0-inf) came out at 3460 ng·h/mL and the half-life is 7.1 h. Moreover, the Cmax in series [6] (plasma, ip 30 mg/kg, HCl salt in 20% HP-β-CD in saline) is 1810 ng/mL. Moreover, the “motor functions (time to reach the top of the screen)” value in series [7] is “improved motor functions”.

The values above are taken from US11426415B2, “Treatment for Wolfram syndrome and other endoplasmic reticulum stress disorders” (Washington University, priority 2017, dated 2022).
